TGI and GI50 data for 18 compounds are collected here from PubChem BioAssay (NCI).

Holding throughout (experiment): NCI anticancer screen, dose series, 48 h
Assay [1] deals with HS 578T breast.
In assay [2] the test system is U251 CNS.
In assay [3] the test system is NCI-H226 lung.
The test system of assay [4] is MOLT-4 leukemia.
The subject of assay [5] is NCI-H23 lung.
Assay [6] relates to MDA-MB-435.
The test system of assay [7] is HOP-62 NSCLC.
In assay [8] the test system is SNB-75 CNS.
Assay [9] has as its system HOP-92 NSCLC.
Assay [10] has as its system SW-620 colon.
Assay [11] relates to SK-OV-3 ovarian.
Assay [12] has as its system SF-295 CNS.
The test system of assay [13] is RXF 393 renal.
In assay [14] the test system is HT29 colon.
Assay [15] relates to ACHN renal.

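A five-concentration, 48-hour dose response in 96-well plates underlies each endpoint, interpolated linearly between surrounding concentrations. The concentration for 50% growth inhibition is given as GI50. Definition used: TGI = concentration required for complete inhibition of growth.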

As to `CC(C)(Cl)C(Br)CCC(=CCBr)CBr` (mixture of isomers), the TGI in assay [1] came out at 19.3 µM; in [2], 4.09 µM; in assay [3], 51.9 µM; in assay [4], 2.88 µM; in assay [5], 9.07 µM; in assay [6], 3.56 µM. For the same compound, the TGI in [7] came out at 11.7 µM; in assay [8], 7.31 µM; in assay [9], 5.1 µM; in assay [10] it was 5.53 µM; in [11] it was 29 µM; in [12], 11 µM. Besides, the TGI was 15.7 µM in assay [13], 4.65 µM in [14] and 15.6 µM in assay [15].

`c1ccc(C2C3=C(c4ccccc4CC3)N3c4cc5nc6ccccc6nc5cc4NC34CCCCC24)cc1` (stereo unspecified): the TGI in assay [1] is over 10 µM; in [2], over 10 µM; in [3], over 10 µM; in [4] it was over 8.19 µM; in assay [5], over 10 µM; in assay [6], over 10 µM. In addition, the TGI in assay [7], in assay [8], in assay [9], in [10], in [11] and in [12] was over 10 µM each time. Moreover, the TGI in [13], in assay [14] and in [15] was over 10 µM each time.

`CC1NC(=O)c2c(-c3ccccc3)nn(-c3ccccc3)c2NC1=O` (stereo unspecified): the TGI in [1], in assay [2], in assay [3], in [4], in assay [5] and in assay [6] was over 100 µM in each case. For the same compound, the TGI in assay [7], in [8], in assay [9], in [10], in assay [11] and in assay [12] was over 100 µM in each case. Further, the TGI in assay [13], in assay [14] and in [15] was over 100 µM throughout.

As for `Cc1nn(C(=O)c2ccc(Cl)cc2)c2c1C(c1ccccc1)SC(N)=N2` (stereo unspecified), the TGI in assay [1], in assay [2], in assay [3], in [4], in assay [5] and in [6] was over 10 µM each time. Besides, the TGI in [7], in assay [8], in [9], in assay [10], in assay [11] and in assay [12] was over 10 µM throughout. The TGI in [13], in [14] and in assay [15] was over 10 µM in each case.

As for `COCN1C(=O)[C@@H]2CCCN2C(=O)c2ccc(Cl)cc21`, the TGI in assay [1], in assay [2], in [3], in assay [4], in [5] and in [6] was over 100 µM each time. Besides, the TGI in [7], in assay [8], in assay [9], in assay [10], in assay [11] and in assay [12] was over 100 µM each time. Besides, the TGI in assay [13], in assay [14] and in [15] was over 100 µM each time.

As to `NCCSC1(O)C(=O)c2ccccc2-c2ccccc21` (stereo unspecified), the TGI in [1] worked out at 6.2 µM; in assay [2], 2.16 µM; in assay [3], 2.99 µM; in [4], 1.21 µM; in assay [5] it was 3.75 µM; in [6], 0.207 µM. For the same compound, the TGI in [7] is 3.22 µM; in assay [8], 2.4 µM; in assay [9], 2.62 µM; in assay [10], 3.16 µM; in assay [11] it was 2.95 µM; in [12] it was 2.28 µM. For the same compound, the TGI in assay [13] worked out at 3.01 µM; in assay [14], 3.8 µM; in [15], 2.23 µM. In addition, the GI50 in assay [9] was 1.3 µM.

In the case of `CCOC(=O)C(CC(C)C)NC(=O)C(N)Cc1ccc(N(CCCl)CCCl)cc1` (stereo unspecified), the TGI in assay [1] was 44.5 µM; in assay [2], 22.4 µM; in assay [3], 29.5 µM; in assay [4], 1.68 µM; in assay [5], 7.09 µM; in assay [6], 46.2 µM. The TGI in assay [7] worked out at 22 µM; in assay [8], 15.9 µM; in assay [9], 11.2 µM; in [10] it was 35.7 µM; in assay [11], 16.6 µM; in assay [12], 21.9 µM. Also, the TGI in [13] was found to be 5.12 µM; in assay [14] it was 11.6 µM; in [15], 1.81 µM.

Regarding `CN(NC(=O)c1ccc(Cl)cc1)C1=NCCCCN1`, the TGI in [1], in assay [2], in assay [3], in [4], in assay [5] and in assay [6] was over 100 µM in each case. The TGI in assay [7], in assay [8], in assay [9], in assay [10], in assay [11] and in assay [12] was over 100 µM each time. Further, the TGI in [13], in assay [14] and in assay [15] was over 100 µM throughout.

On to `N=C(N)SCCSC(=N)N`, for which the TGI in assay [1], in assay [2], in assay [3], in assay [4], in assay [5] and in [6] was over 100 µM throughout. Also, the TGI in assay [7], in assay [8], in assay [9], in assay [10], in assay [11] and in assay [12] was over 100 µM in each case. In addition, the TGI in [13], in assay [14] and in [15] was over 100 µM each time.

Regarding `Brc1ccc(N=C/C=C(\Nc2ccc(Br)cc2)C23CC4CC(CC(C4)C2)C3)cc1`, the TGI was over 67.4 µM in assay [1]; 28.7 µM in [2]; over 100 µM in [3]; over 72.8 µM in assay [4]; over 65.8 µM in assay [5]; 24.7 µM in assay [6]. In addition, the TGI is 43.6 µM in [7]; 35.5 µM in assay [8]; 31.5 µM in assay [9]; 92.1 µM in assay [10]; over 100 µM in [11]; over 92 µM in assay [12]. For the same compound, the TGI is 29 µM in [13], over 61.6 µM in [14] and 23.2 µM in assay [15].

`O=C(Nn1c(-c2ccccc2)nc2ccccc2c1=O)c1ccc([N+](=O)[O-])cc1`: the TGI in assay [1], in assay [2], in [3], in assay [4], in [5] and in [6] was over 100 µM in each case. In addition, the TGI in [7], in [8], in [9], in [10], in assay [11] and in [12] was over 100 µM each time. For the same compound, the TGI in assay [13], in [14] and in [15] was over 100 µM each time.

With `CCOC(=O)c1sc2c(c1OC(=O)c1ccc(Cl)cc1Cl)c(=O)n(-c1ccccc1)c(=S)n2-c1ccccc1`, the TGI in assay [1] is over 100 µM; in assay [2] it was over 56.1 µM; in [3], over 33.6 µM; in [4], 14.5 µM; in assay [5] it was over 82.6 µM; in assay [6], over 100 µM. Moreover, the TGI is over 100 µM in assay [7]; over 100 µM in [8]; 26 µM in assay [9]; over 100 µM in assay [10]; over 81.2 µM in assay [11]; over 100 µM in [12]. Besides, the TGI in assay [13] was over 100 µM; in assay [14] it was over 77.5 µM; in assay [15], over 100 µM.

With `C/C(=N/NC(=S)Nc1ccccc1C)c1ccccn1`, the TGI amounted to 65.3 µM in [1]; 18.1 µM in assay [2]; 2.47 µM in [3]; 2.08 µM in [4]; 27.2 µM in [5]; 15.5 µM in assay [6]. Besides, the TGI in assay [7] came out at 8.99 µM; in [8], 16.3 µM; in assay [9], 17 µM; in assay [10] it was 29.2 µM; in assay [11], 14.8 µM; in assay [12] it was 5.63 µM. For the same compound, the TGI amounted to 13.2 µM in assay [13], 31.8 µM in assay [14] and 10.3 µM in [15].

Take `COc1ccccc1NC(=S)NNC(=O)c1cc(-c2ccccc2)nc2ccccc12`: the TGI turned out to be 50.2 µM in assay [1]; 43.7 µM in [2]; 51.9 µM in [3]; 26.5 µM in assay [4]; 32.3 µM in assay [5]; 18.5 µM in [6]. The TGI in assay [7] is 32 µM; in assay [8] it was 85 µM; in [9], 36.5 µM; in [10], 84.9 µM; in assay [11] it was 42.1 µM; in [12], 18 µM. The figures for the TGI in assay [13], in assay [14] and in [15] were 28.8 µM, 71.3 µM and 65.8 µM, respectively.

`CCOc1ccc(-n2c(=O)c3nn4c(=O)n(-c5ccc(OCC)cc5)c(=O)c4nn3c2=O)cc1`: the TGI in [1], in assay [2], in assay [3], in assay [4], in assay [5] and in assay [6] was over 100 µM throughout. The TGI in [7] is over 100 µM; in assay [8] it was 75.7 µM; in assay [9], over 100 µM; in assay [10], over 100 µM; in assay [11] it was over 100 µM; in assay [12], over 100 µM. For the same compound, the TGI in assay [13], in [14] and in [15] was over 100 µM throughout.

Take `Brc1ccc2[nH]cc([C@@H]3CN[C@@H](c4c[nH]c5ccc(Br)cc45)CN3)c2c1`: the TGI in assay [1] amounted to 29.6 µM; in assay [2], 11.2 µM; in [3] it was 31.3 µM; in assay [4], 4.51 µM; in [5], 25.3 µM; in [6], 11.9 µM. Besides, the TGI is 23.1 µM in [7]; 12.5 µM in [8]; 7.57 µM in [9]; 15.6 µM in assay [10]; 25.7 µM in assay [11]; 14.7 µM in [12]. Further, the values for the TGI in assay [13], in [14] and in assay [15] were 24.5 µM, 15.5 µM and 9.59 µM, respectively.

Take `Cc1cc(C)c2c(=O)cc(-c3ccccc3)[nH]c2c1`: the TGI is 21.2 µM in assay [1]; 18 µM in [2]; 48.9 µM in assay [3]; over 100 µM in [4]; 16.5 µM in [5]; 41.6 µM in [6]. In addition, the TGI was 23.7 µM in [7]; 19.3 µM in [8]; 59.5 µM in assay [9]; over 100 µM in assay [10]; 15.7 µM in assay [11]; 17.9 µM in assay [12]. In addition, the results for the TGI in [13], in [14] and in assay [15] were 5.11 µM, 27.1 µM and 23.5 µM, respectively.

On to `CC(Cc1ccc(O)cn1)(NC(=O)c1ccccc1)C(=O)O` (stereo unspecified), for which the TGI in assay [1], in assay [2], in [3], in assay [4], in assay [5] and in [6] was over 100 µM each time. Further, the TGI in [7], in assay [8], in [9], in assay [10], in assay [11] and in [12] was over 100 µM in each case. Moreover, the TGI in [13], in assay [14] and in [15] was over 100 µM throughout.
